Measured values taken from ChEMBL document CHEMBL1201862, “PubChem BioAssay data set” (2004).
Calls of active or inactive are those of the source.

Legend:
[1] = biological target: G-protein coupled receptor 35 (Homo sapiens, UniProt Q9HC97); test: inhibition of zaprinast-stimulated GPR35 beta-arrestin translocation – imaging, U2OS, beta-arrestin-GFP, zaprinast agonist, primary screen (AID 2058); assay type: functional;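 note: antagonist potency meaning inhibition of agonist-induced arrestin redistribution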
[2] = biological target: G-protein coupled receptor 55 (Homo sapiens, UniProt Q9Y2T6); test: selective activators of receptor GPR55 – imaging, U2OS cells, beta-arrestin-GFP redistribution, primary screen (AID 1961); assay type: functional
[3] = biological target: T1, Heat shock factor protein 1 (Mus musculus, UniProt P38532); test: decrease of HSF1-responsive luciferase luminescence – cell-based, NIH3T3, dose retest, confirmation (AID 2382); assay type: functional;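 note: NIH3T3 fibroblasts with HSF1-driven luciferase reporter stressed by proteasome inhibitor MG132; luminescence from HSF1-driven luciferase expression after 8 hours of MG132 stress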
T1 sequence (P38532 whole entry): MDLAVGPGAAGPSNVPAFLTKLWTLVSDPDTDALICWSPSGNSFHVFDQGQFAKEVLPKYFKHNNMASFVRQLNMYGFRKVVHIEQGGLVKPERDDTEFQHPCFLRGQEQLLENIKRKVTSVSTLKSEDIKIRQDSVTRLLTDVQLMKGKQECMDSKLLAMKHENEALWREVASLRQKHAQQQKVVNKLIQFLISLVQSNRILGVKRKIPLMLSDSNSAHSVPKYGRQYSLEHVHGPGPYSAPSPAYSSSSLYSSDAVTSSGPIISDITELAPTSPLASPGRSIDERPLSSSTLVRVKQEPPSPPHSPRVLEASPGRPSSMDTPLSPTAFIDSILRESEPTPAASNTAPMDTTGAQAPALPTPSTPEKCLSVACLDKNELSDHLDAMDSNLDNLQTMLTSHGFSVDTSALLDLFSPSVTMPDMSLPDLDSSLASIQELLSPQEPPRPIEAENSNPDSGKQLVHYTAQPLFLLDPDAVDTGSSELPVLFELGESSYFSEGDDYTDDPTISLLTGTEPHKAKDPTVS

Cytochrome P450 2D6 = Cytochrome P450 2D6 (Homo sapiens, UniProt P10635); test: qHTS Assay for Inhibitors and Substrates of Cytochrome P450 2D6. [Related pubchem assays: 410 ]; assay type: ADME; settings: read-out: Potency
Cytochrome P450 2C9 = Cytochrome P450 2C9 (Homo sapiens, UniProt P11712); settings: Potency
[4] = blockers of CRF-binding protein–CRF-R2 complex – cell-based, uHTS hits, 384-well, dose response (AID 651639); assay type: functional, Homo sapiens; settings: read-out: IC50_Mean
Aminopeptidase N = Aminopeptidase N (Plasmodium falciparum FcB1/Columbia, UniProt O96935); test: malaria alanyl aminopeptidase activity blockers – biochemical, fluorogenic H-Leu-NHMec substrate, 1536-well (AID 1445); design: species or system Plasmodium falciparum 3D7, 3D7
[5] = biological target: T2, Corticotropin-releasing factor receptor 2/Corticotropin-releasing factor-binding protein (Homo sapiens, UniProt P24387+Q13324); test: activators of CRF receptor 2 with binding protein – uHTS hits, confirmation (AID 602473); assay type: functional; settings: read-out: EC50_Mean
T2 sequence (Q13324 whole entry): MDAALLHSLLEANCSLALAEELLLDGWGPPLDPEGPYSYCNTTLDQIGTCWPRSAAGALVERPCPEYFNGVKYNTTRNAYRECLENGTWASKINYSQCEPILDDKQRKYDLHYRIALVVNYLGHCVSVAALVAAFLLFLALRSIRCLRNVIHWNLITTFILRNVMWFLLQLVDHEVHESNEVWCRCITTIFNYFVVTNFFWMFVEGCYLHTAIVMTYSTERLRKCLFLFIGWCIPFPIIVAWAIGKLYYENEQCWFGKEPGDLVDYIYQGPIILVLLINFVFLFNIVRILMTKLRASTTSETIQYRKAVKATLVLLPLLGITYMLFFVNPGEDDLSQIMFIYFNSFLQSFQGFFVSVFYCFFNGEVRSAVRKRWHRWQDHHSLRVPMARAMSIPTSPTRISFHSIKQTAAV
T2 sequence (P24387 whole entry): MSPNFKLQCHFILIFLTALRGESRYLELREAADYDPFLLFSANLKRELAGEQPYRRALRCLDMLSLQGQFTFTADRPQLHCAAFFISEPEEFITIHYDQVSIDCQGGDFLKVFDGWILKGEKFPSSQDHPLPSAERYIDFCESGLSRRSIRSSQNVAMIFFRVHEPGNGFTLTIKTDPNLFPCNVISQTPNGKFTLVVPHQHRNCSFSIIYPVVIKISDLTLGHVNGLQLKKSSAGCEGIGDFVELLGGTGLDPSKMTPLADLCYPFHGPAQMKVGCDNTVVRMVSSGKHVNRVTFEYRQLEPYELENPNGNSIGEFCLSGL

[6] = biological target: T2, Corticotropin-releasing factor receptor 2/Corticotropin-releasing factor-binding protein; test: Dose Response confirmation of uHTS hits for small molecule antagonists of the CRF-binding protein and CRF-R2 receptor complex.; assay type: functional; settings: read-out: IC50_Mean
Hexokinase = Hexokinase (Trypanosoma brucei, UniProt Q38C41); test: Confirmation assay for inhibitors of Trypanosoma brucei hexokinase 1-Analogue-first series. [Related pubchem assays (depositor defined):AID1430, AID1632, AID2516, AID2560, AID2579, AID2600, AID449725, AID492951]; assay type: functional
Beta-galactosidase = Beta-galactosidase (Escherichia coli, UniProt Q8VNN2); test: detection-enzyme interference by beta-gal modulators – biochemical, E. coli enzyme, set 3, artefact control for CCR6 antagonist project, dose response (AID 504712); assay type: functional
[7] = biological target: C-C chemokine receptor type 6 (Homo sapiens, UniProt P51684); test: antagonism of CCR6 beta-arrestin recruitment – cell-based, luminescent beta-arrestin readout, dose response (AID 504728); assay type: functional
[8] = biological target: Scavenger receptor class B member 1 (Mus musculus, UniProt Q61009); test: mouse SR-BI DiI-HDL uptake blockers – ldlA[mSR-BI] cells, fluorescence, cherry pick, dose response (AID 493194); assay type: functional, cell-based;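 note: cellular uptake of fluorescent DiI-labeled HDL measured as cell fluorescence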
Chain of Scavenger receptor class B member 1 (Q61009 whole entry): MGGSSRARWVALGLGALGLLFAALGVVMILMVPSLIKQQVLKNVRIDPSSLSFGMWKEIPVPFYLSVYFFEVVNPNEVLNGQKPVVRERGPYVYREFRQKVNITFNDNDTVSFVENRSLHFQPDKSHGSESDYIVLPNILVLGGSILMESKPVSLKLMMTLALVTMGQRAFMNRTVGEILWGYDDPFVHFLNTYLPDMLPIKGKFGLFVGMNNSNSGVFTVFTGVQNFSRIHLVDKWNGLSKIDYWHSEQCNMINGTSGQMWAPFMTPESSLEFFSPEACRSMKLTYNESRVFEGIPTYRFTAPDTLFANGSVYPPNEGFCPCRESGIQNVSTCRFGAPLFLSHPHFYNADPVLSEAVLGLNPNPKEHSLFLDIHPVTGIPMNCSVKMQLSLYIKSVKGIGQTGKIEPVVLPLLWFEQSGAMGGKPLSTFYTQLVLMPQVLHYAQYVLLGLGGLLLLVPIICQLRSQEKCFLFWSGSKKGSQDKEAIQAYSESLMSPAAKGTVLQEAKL

Chain of Hexokinase (Q38C41 whole entry): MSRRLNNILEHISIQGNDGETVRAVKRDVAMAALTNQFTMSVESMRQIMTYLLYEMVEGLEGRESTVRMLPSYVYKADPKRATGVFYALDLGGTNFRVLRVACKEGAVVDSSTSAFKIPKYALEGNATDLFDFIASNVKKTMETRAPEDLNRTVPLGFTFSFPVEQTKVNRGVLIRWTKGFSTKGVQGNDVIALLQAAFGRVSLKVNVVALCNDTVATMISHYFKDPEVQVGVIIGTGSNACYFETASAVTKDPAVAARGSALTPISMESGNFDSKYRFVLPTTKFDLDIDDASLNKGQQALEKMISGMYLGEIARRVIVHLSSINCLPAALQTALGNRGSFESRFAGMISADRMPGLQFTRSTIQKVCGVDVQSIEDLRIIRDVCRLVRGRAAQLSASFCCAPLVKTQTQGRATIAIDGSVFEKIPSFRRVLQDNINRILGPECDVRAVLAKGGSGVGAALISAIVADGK
Chain of G-protein coupled receptor 55 (Q9Y2T6 whole entry): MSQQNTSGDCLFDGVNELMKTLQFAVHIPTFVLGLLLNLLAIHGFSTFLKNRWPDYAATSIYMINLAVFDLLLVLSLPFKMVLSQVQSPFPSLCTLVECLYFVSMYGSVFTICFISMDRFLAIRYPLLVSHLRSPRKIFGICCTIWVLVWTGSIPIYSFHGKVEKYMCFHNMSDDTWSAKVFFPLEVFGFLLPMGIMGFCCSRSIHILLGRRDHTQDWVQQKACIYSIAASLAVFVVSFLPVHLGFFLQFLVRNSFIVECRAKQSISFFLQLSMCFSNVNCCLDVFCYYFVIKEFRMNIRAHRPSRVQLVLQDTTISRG
Chain of C-C chemokine receptor type 6 (P51684 whole entry): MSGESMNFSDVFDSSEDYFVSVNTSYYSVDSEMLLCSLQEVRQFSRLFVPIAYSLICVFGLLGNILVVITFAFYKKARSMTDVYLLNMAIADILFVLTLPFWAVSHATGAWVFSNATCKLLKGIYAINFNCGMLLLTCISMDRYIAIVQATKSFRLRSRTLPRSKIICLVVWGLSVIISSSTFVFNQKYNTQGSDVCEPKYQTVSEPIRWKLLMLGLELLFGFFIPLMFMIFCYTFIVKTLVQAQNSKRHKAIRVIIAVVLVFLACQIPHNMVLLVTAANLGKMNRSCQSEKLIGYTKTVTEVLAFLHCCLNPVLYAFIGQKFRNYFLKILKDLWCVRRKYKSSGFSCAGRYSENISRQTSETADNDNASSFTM
Chain of Aminopeptidase N (O96935 whole entry): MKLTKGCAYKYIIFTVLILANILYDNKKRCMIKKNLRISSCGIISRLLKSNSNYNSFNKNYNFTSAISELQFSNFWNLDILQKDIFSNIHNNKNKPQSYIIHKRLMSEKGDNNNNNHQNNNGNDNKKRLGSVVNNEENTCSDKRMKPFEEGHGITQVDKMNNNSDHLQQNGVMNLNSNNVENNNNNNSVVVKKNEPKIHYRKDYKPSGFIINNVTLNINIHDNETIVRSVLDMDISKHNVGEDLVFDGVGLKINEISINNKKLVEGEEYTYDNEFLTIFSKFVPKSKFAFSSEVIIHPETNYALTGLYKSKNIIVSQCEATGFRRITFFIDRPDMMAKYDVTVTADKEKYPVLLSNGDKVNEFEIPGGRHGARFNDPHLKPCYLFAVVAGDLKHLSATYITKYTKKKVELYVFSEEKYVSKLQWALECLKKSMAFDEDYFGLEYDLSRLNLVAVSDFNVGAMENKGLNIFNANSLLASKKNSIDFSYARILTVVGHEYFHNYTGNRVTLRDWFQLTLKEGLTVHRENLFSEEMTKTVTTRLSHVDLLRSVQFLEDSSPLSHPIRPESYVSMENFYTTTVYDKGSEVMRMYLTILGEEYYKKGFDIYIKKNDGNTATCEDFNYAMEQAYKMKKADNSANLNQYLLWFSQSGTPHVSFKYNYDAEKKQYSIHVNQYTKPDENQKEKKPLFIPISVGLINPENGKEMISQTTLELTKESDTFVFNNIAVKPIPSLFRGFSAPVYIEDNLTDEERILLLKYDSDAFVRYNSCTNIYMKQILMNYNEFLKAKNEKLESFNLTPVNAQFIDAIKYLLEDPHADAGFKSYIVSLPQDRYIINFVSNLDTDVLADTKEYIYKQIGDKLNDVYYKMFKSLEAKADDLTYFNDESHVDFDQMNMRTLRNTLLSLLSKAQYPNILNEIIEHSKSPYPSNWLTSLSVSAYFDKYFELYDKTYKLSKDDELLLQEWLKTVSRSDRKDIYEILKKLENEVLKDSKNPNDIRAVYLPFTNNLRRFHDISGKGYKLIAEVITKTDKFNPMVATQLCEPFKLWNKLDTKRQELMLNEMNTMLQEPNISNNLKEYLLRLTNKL
Chain of Cytochrome P450 2C9 (P11712 whole entry): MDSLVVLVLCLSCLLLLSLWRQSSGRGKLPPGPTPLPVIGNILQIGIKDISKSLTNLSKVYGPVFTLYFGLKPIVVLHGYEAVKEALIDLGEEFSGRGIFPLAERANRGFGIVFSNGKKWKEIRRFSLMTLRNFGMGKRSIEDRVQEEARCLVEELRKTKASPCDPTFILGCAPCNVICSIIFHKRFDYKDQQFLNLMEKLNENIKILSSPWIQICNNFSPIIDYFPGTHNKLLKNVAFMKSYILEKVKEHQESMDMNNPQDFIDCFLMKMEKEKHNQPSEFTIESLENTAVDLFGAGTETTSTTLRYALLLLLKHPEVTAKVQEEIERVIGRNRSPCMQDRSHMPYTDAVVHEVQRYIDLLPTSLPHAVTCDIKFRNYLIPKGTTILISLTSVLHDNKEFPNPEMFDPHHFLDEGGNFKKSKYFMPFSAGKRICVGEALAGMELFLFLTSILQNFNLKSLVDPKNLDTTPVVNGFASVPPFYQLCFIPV
Chain of Cytochrome P450 2D6 (P10635 whole entry): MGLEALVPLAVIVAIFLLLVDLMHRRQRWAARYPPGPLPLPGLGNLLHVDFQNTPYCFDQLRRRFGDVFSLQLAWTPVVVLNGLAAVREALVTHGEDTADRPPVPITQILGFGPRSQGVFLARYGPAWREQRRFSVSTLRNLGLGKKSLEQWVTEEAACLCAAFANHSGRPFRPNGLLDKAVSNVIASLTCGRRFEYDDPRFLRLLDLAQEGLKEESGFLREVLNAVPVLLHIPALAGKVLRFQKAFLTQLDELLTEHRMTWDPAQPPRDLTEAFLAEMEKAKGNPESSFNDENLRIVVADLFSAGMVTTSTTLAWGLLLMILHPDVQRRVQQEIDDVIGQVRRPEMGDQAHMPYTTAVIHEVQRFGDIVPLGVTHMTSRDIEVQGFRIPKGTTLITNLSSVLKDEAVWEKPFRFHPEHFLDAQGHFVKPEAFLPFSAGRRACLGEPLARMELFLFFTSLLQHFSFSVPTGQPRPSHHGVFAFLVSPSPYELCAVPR
Chain of Beta-galactosidase (Q8VNN2 whole entry): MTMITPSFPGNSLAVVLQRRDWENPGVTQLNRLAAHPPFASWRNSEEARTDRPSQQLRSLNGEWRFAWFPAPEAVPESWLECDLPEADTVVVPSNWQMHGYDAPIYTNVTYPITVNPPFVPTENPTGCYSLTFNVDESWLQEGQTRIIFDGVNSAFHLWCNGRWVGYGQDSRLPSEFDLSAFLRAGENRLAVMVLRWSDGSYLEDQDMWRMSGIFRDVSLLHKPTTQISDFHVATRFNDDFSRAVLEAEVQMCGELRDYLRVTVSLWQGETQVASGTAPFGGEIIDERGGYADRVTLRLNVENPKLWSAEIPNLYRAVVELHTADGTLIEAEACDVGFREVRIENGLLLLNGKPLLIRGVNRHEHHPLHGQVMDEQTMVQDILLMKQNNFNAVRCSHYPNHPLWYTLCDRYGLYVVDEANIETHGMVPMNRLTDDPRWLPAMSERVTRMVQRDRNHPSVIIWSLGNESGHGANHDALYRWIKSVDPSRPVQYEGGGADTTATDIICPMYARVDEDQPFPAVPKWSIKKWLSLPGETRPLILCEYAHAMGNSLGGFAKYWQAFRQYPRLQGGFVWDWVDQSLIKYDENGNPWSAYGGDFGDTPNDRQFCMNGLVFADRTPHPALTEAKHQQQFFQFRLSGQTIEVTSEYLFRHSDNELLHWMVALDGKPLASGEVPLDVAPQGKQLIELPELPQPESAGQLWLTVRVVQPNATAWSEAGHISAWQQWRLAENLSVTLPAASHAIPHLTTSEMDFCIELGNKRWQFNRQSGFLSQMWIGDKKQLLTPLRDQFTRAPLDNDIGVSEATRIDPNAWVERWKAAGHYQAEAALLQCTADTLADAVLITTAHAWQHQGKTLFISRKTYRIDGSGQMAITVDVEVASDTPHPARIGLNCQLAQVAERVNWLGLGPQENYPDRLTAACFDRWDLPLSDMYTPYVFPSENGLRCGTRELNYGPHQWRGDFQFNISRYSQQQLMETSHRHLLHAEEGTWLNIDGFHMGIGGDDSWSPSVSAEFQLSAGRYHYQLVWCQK

For `CC(=O)Nc1sc(/C(C#N)=C/c2ccc(Cl)c(Cl)c2)nc1-c1ccc(C)cc1`, which IC50 [1] is on record?
Its IC50 is 0.534 µM (active).

Which results are given for `COc1ccc(F)cc1C(=O)C1CCCN(Cc2cccn2-c2ccccn2)C1` (stereo not drawn)?
EC50 [2]: 8.93 µM (active); EC50 [3]: > 195 µM (not active)

Which results are given for `COc1ccc2c(c1OC)C(=O)O[C@@H]2[C@H]1c2cc3c(cc2CCN1C)OCO3` [HYDRASTINE]?
AC50 (Cytochrome P450 2D6): 39.8 µM (inconclusive); AC50 (Cytochrome P450 2C9): 25.1 µM (inconclusive)

Which results are given for `O=C(ON=C1CCN(c2ccc([N+](=O)[O-])cc2)CC1)c1ccccc1`?
IC50 [4]: > 20 µM (inactive); IC50 (Aminopeptidase N): 45.2 µM (active); EC50 [5]: > 53 µM (inactive); IC50 [6]: 2.74 µM (active)

Which IC50 (Hexokinase) does the source give for `COc1ccc(NC(=O)c2ccc(Cl)cc2C(=O)O)cc1` here?
The IC50 was > 25 µM (inactive).

Which IC50 (Beta-galactosidase) does the source give for `C/C(CCC12CC3CC(CC(C3)C1)C2)=N\NC(N)=S` here?
The IC50 was > 66.6 µM (inactive).

And the IC50 [7]?
Its IC50 is 50.4 µM (inactive).

Which AC50 [8] does the source give for `COc1cccc(N(CC(=O)NC2CCCC2)C(=O)Cn2nnc(-c3ccc(C)cc3)n2)c1` here?
Its AC50 is 234 µM (active).
